Source: PubChem BioAssay AID248 (DTP/NCI, 2004)
“And” between values parts separate entries of the source, which are not always exact repeats. Equal values may be shown once. Toxic doses and inconclusive results are not listed. No stated cut-off is given here; in the data, active means T/C of 150% or more; inactive means T/C below 125%.

Test system: L1210 leukemia ip in BDF1 mice, survival T/C
Test: NCI In Vivo Anticancer Drug Screen. Data for tumor model L1210 Leukemia (intraperitoneal) in B6D2F1 (BDF1) mice
Conditions: endpoint: mean survival time, higher = longer survival
Procedure, shortened: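 Ratio derived from survival: compound-dosed mice over vehicle-dosed mice, all bearing a transplantable tumor.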

[1] = dose: 100.0 mg/kg/injection, schedule: Q01DX009 (ip), vehicle: Klucel (hydroxypropylcellulose) (HPC)
[2] = dose: 100.0 mg/kg/injection, schedule: Q04DX003 (ip), vehicle: Klucel (hydroxypropylcellulose) (HPC)
[3] = dose: 200.0 mg/kg/injection, schedule: Q04DX003 (ip), vehicle: Klucel (hydroxypropylcellulose) (HPC)
[4] = dose: 400.0 mg/kg/injection, schedule: Q04DX003 (ip), vehicle: Klucel (hydroxypropylcellulose) (HPC)

Measured: T/C

CN(N=O)C(=O)NCCNc1ncnc2nc[nH]c12
inactive: dose: 43.0 mg/kg/injection, schedule: Q01DX Z (ip), vehicle: carboxymethylcellulose (CMC) 86 % of control | dose: 87.0 mg/kg/injection, schedule: Q01DX Z (ip), vehicle: carboxymethylcellulose (CMC) 93 % of control | dose: 175.0 mg/kg/injection, schedule: Q01DX Z (ip), vehicle: carboxymethylcellulose (CMC) 94 % of control | dose: 350.0 mg/kg/injection, schedule: Q01DX Z (ip), vehicle: carboxymethylcellulose (CMC) 114 % of control

OCCN1CCN(CC/C=C2/c3ccccc3Sc3ccc(Cl)cc32)CC1
inactive: dose: 6.25 mg/kg/injection, schedule: Q01DX001 (ip), vehicle: saline 96 % of control | dose: 8.0 mg/kg/injection, schedule: Q01DX015 (ip), vehicle: saline 107 % of control | dose: 12.5 mg/kg/injection, schedule: Q01DX001 (ip), vehicle: saline 102 % of control | dose: 12.5 mg/kg/injection, schedule: Q01DX009 (ip), vehicle: saline 108 % of control | dose: 25.0 mg/kg/injection, schedule: Q01DX001 (ip), vehicle: saline 98 % of control and 122 % of control | dose: 25.0 mg/kg/injection, schedule: Q01DX009 (ip), vehicle: saline 116 % of control | dose: 25.0 mg/kg/injection, schedule: Q04DX003 (ip), vehicle: saline 110 % of control | dose: 37.5 mg/kg/injection, schedule: Q01DX001 (ip), vehicle: saline 101 % of control | dose: 50.0 mg/kg/injection, schedule: Q01DX001 (ip), vehicle: saline 113 % of control | dose: 50.0 mg/kg/injection, schedule: Q04DX003 (ip), vehicle: saline 116 % of control | dose: 75.0 mg/kg/injection, schedule: Q01DX001 (ip), vehicle: saline 102 % of control and 120 % of control | dose: 100.0 mg/kg/injection, schedule: Q01DX001 (ip), vehicle: saline 100 % of control

COc1ccc(OC)c(NC(=O)NNC(=O)CNC(=O)Nc2ccc(Cl)c(Cl)c2)c1
inactive: dose: 12.5 mg/kg/injection, schedule: Q01DX009 (ip), vehicle: saline with Tween-80 95 % of control | dose: 25.0 mg/kg/injection, schedule: Q01DX009 (ip), vehicle: saline with Tween-80 95 % of control | dose: 50.0 mg/kg/injection, schedule: Q01DX009 (ip), vehicle: saline with Tween-80 91 % of control and 92 % of control | dose: 100.0 mg/kg/injection, schedule: Q01DX009 (ip), vehicle: saline with Tween-80 88 % of control | dose: 200.0 mg/kg/injection, schedule: Q01DX009 (ip), vehicle: saline with Tween-80 98 % of control

CC(=O)CCC(=O)NC(C)C
inactive: dose: 100.0 mg/kg/injection, schedule: Q04DX002 (ip), vehicle: saline with Tween-80 102 % of control | dose: 200.0 mg/kg/injection, schedule: Q04DX002 (ip), vehicle: saline with Tween-80 102 % of control | dose: 400.0 mg/kg/injection, schedule: Q04DX002 (ip), vehicle: saline with Tween-80 117 % of control

CCS(=O)c1ncc2cnccn12 (stereo unspecified)
inactive: dose: 50.0 mg/kg/injection, schedule: Q01DX009 (ip), vehicle: water 105 % of control | dose: 100.0 mg/kg/injection, schedule: Q01DX009 (ip), vehicle: water 107 % of control | dose: 100.0 mg/kg/injection, schedule: Q04DX003 (ip), vehicle: water 102 % of control | dose: 200.0 mg/kg/injection, schedule: Q04DX003 (ip), vehicle: water 100 % of control

Oc1ccc(OCc2ccccc2)cc1
inactive: dose: 25.0 mg/kg/injection, schedule: Q01DX009 (ip), vehicle: Klucel (hydroxypropylcellulose) (HPC) 110 % of control | dose: 50.0 mg/kg/injection, schedule: Q01DX009 (ip), vehicle: Klucel (hydroxypropylcellulose) (HPC) 88 % of control | [1] 100 % of control | dose: 100.0 mg/kg/injection, schedule: Q04DX003 (ip), vehicle: other 103 % of control | dose: 200.0 mg/kg/injection, schedule: Q04DX003 (ip), vehicle: other 102 % of control | dose: 400.0 mg/kg/injection, schedule: Q04DX003 (ip), vehicle: other 93 % of control

CC(=O)OC1=C(Cl)C(=O)C(OC(C)=O)=C(Cl)C1=O
inactive: dose: 50.0 mg/kg/injection, schedule: Q04DX003 (ip), vehicle: Klucel (hydroxypropylcellulose) (HPC) 106 % of control | [2] 100 % of control | [3] 100 % of control | [4] 92 % of control

COc1ccc(/C=C2\C(=O)OC(=O)\C2=C\c2ccc(OC)c(OC)c2)cc1OC
inactive: [1] 100 % of control | [2] 102 % of control | dose: 200.0 mg/kg/injection, schedule: Q01DX009 (ip), vehicle: Klucel (hydroxypropylcellulose) (HPC) 97 % of control | [3] 102 % of control | [4] 96 % of control

CS(=O)(=O)c1nc(Cl)c(Cl)[nH]1
inactive: dose: 100.0 mg/kg/injection, schedule: Q01DX001 (ip), vehicle: saline with Tween-80 100 % of control | dose: 200.0 mg/kg/injection, schedule: Q01DX001 (ip), vehicle: saline with Tween-80 102 % of control | dose: 400.0 mg/kg/injection, schedule: Q01DX001 (ip), vehicle: saline with Tween-80 104 % of control
